# Measurements as given in patent US11541049B2, “Tetrahydroisoquinoline derivatives, preparation process and use thereof” (SICHUAN KELUN-BIOTECH BIOPHARMACEUTICAL CO., LTD., priority 2018, dated 2023).
# Assays:
# [1] = Pharmacokinetics study in male SD rats, intravenous injection; assay type: in vivo; conditions: male, SD, rat, plasma, rats, 5 mg/kg
# Method: (§1) Pharmacokinetics characteristics were examined by administering compound of the present disclosure and the reference compound (BMS-962212) to male SD rats through intravenous injection (IV). Blood was collected at various time points after administration. The blood was anticoagulated with EDTA-K2. Plasma samples were obtained by centrifugation within 30 min after blood collection, and retained at −80° C. The plasma samples were processed to precipitate the proteins and then analyzed by LC-MS/MS.
# (§2) The pharmacokinetic parameters were calculated using WinNonlin 6.3 software by employing a non-compartmental model.
# [2] = Pharmacokinetics study in male rabbits, intravenous injection; assay type: in vivo; conditions: male, rabbit, plasma, 1 mg/kg
# Method: as §1, with “properties” for “characteristics”, “rabbits” for “SD rats”, “centrifugation,” for “centrifugation within 30 min after blood collection,”
# as §2
# [3] = Pharmacokinetics study in Beagle dogs, intravenous injection; assay type: in vivo, Beagle dog; conditions: dog, plasma, 0.5 mg/kg
# Method: as §1, with “properties” for “characteristics”, “Beagle dog” for “male SD rats”, “centrifugation,” for “centrifugation within 30 min after blood collection,”
# as §2
# [4] = Repeated dose toxicity study in SD rats, intravenous infusion, daily for 14 days; assay type: in vivo; conditions: rat, in vivo, daily for 14 days, SD rats, read-out: No-observed-adverse-effect level (NOAEL)
# Method: (§3) The administration was repeated daily for 14 days, while clinical observation, body weight and food intake were recorded. […] Observation by gross anatomy and examination of histopathology were also conducted.
# SD rats [5] = assay: as above; assay type: in vivo; conditions: 60 mg/kg
# Method: as §3
# [6] = Single dose toxicity study in SD rats, intravenous infusion; conditions: SD, rat, in vivo, iv
# Method: (§4) The clinical observation was carried out for 7 days after a single dose, and the body weight of the animals were measured. On the 8th day, blood samples were taken after anesthesia for detection of hematology, blood biochemistry, coagulation and other indicators. Observation was also conducted by gross anatomy.
# SD rats [7] = assay: as above; conditions: intravenous infusion (2 ml/min)
# Method: as §4
# [8] = target: human coagulation factor XIa (Homo sapiens (Human), UniProt P03951); assay: Inhibition of coagulation factor XIa (fluorogenic substrate, enzyme kinetic mode); assay type: biochemical
# Sequence of human coagulation factor XIa (P03951 388-625): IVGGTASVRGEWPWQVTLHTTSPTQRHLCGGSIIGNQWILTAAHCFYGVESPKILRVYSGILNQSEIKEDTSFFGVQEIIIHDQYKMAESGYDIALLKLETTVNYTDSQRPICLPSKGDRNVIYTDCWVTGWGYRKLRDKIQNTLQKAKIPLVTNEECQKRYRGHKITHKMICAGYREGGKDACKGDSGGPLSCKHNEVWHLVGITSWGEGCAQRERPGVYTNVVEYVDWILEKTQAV
# Sequence of human coagulation factor XIa (P03951 19-387): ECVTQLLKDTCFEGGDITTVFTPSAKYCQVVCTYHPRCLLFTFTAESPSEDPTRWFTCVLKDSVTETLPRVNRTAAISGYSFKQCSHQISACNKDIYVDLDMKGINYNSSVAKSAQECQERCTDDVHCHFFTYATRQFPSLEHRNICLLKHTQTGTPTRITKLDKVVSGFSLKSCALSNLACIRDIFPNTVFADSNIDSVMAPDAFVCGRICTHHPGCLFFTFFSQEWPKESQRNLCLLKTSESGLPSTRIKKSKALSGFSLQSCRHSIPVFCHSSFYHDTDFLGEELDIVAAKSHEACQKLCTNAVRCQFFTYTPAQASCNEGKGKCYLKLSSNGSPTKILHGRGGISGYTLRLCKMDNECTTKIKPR
# Method: The following procedures can be used to determine the in vitro inhibition of human coagulation factor XIa by the compound of the present disclosure, as indicated by IC50.
# Enzyme: human coagulation factor XIa; manufacturer: Haemtech;
# Substrate: Boc-Ile-Glu-Gly-Arg-AMC Acetate salt; manufacturer: Bachem;
# Reaction buffer: 50 mM HEPES, 145 mM NaCl, 5 mM KCl, 0.1% BSA, pH 7.4;
# The test compounds were dissolved in reaction buffer at different concentrations. 4 μl of coagulation factor XIa and 4 μl of the test compound were added to a 384 well plate, incubated at room temperature for 10 minutes after mixed thoroughly, and then 4 μl of substrate was added to initiate the reaction. For reading fluorescence signal value, enzyme kinetic mode was used. The wavelength of excitation light was selected to be 380 nm, and the wavelength of emission light was selected to be 460 nm. Read once per 30 seconds, and continuously read 20 cycles. Linear regression analysis of signal value-time was performed during the linear reaction period, and the slope was the reaction rate, and the enzyme activity inhibition rate was calculated according to the following formula. The half inhibitory concentration IC50 values of the compound were fitted using GraphPad Prism 5 software, and results are shown in Table 1. Inhibition rate %=(V0−Vi)/(V0−Vblank)×100.
# In the formula: V0 is the reaction rate of the control well (using the same volume of reaction buffer without adding test compound), Vi is the reaction rate of test compound, Vblank is a blank well (using the same volume of reaction buffer without adding either enzyme or test compound).
smiles,measurement,setting,value
"CN1CCN(c2cccc3c2CCN(C(=O)/C=C/c2c(-n4cnnn4)ccc(Cl)c2F)[C@@H]3C(=O)Nc2ccc(C(=O)O)cc2)C(=O)C1 [BMS-962212, reference compound]",AUC(0-inf),[1],4090 ± 654 ng·h/mL
same,AUC(0-t),[1],4090 ± 654 ng·h/mL
same,Cmax,[1],11100 ± 1850 ng/mL
same,clearance,[1],20.7 ± 2.7 mL/min/kg
same,half-life,[1],11.4 ± 1.8 min
same,AUC(0-inf),[2],484 ± 38 ng·h/mL
same,AUC(0-t),[2],476 ± 35 ng·h/mL
same,Cmax,[2],1470 ± 145 ng/mL
same,Vd,[2],1.28 ± 0.28 L/kg
same,clearance,[2],34.6 ± 2.8 mL/min/kg
same,half-life,[2],25.8 ± 6.6 min
same,AUC(0-inf),[3],846 ± 80 ng·h/mL
same,AUC(0-t),[3],846 ± 80 ng·h/mL
same,Cmax,[3],1480 ± 40 ng/mL
same,Vd,[3],0.71 ± 0.04 L/kg
same,clearance,[3],9.91 ± 0.94 mL/min/kg
same,half-life,[3],49.8 ± 3 min
same,NOAEL at 14 days,[4],< 60 mg/kg
same,Repeated dose toxicity study in SD rats: females died (10th and 12th day of the administration),SD rats [5]; daily,female animals. Two
same,Repeated dose toxicity study in SD rats: body weight finding,"SD rats [5]; daily for 14 days, female animals",Significant weight loss
same,MTD at 7 days,[6],70 mg/kg
same,Single dose toxicity study in SD rats: observation,SD rats [7]; 50 mg/kg,No abnormality was
same,Single dose toxicity study in SD rats: observation,SD rats [7]; 70 mg/kg,obviously hypoactive
same,Single dose toxicity study in SD rats: observation,SD rats [7]; 75 mg/kg,high mortality
same,Single dose toxicity study in SD rats: observation,"SD rats [7]; 75 mg/kg, listed as Reference compound",Death of the animals
"N[C@@H](CCC(=O)O)C(=O)N1CC=C(c2cccc3c2CCN(C(=O)[C@H]2CC(c4cccc(Cl)c4F)=NO2)[C@@H]3C(=O)Nc2ccc(C(=O)O)cc2)CC1 [Example 3, 4-((S)-5-(1-((S)-2-amino-4-carboxybutanoyl)-1,2,3,6-tetrahydropyridin-4-yl)-2-((R)-3-(3-chloro-2-fluorophenyl)-4,5-dihydroisoxazole-5-carbonyl)-1,2,3,4-tetrahydroisoquinoline-1-carboxamido)benzoic acid]",IC50,[8],0.29 ± 0.04 nM
"N[C@@H](CCC(=O)N1CC=C(c2cccc3c2CCN(C(=O)[C@H]2CC(c4cccc(Cl)c4F)=NO2)[C@@H]3C(=O)Nc2ccc(C(=O)O)cc2)CC1)C(=O)O [Example 2, 4-((S)-5-(1-((S)-4-amino-4-carboxybutanoyl)-1,2,3,6-tetrahydropyridin-4-yl)-2-((R)-3-(3-chloro-2-fluorophenyl)-4,5-dihydroisoxazole-5-carbonyl)-1,2,3,4-tetrahydroisoquinoline-1-carboxamido)benzoic acid]",IC50,[8],0.21 ± 0.02 nM
"CC(C)[C@H](N)C(=O)N1CC=C(c2cccc3c2CCN(C(=O)[C@H]2CC(c4cccc(Cl)c4F)=NO2)[C@@H]3C(=O)Nc2ccc(C(=O)O)cc2)CC1 [Example 1, 4-((S)-5-(1-((S)-2-amino-3-methylbutanoyl)-1,2,3,6-tetrahydropyridin-4-yl)-2-((R)-3-(3-chloro-2-fluorophenyl)-4,5-dihydroisoxazole-5-carbonyl)-1,2,3,4-tetrahydroisoquinoline-1-carboxamido)benzoic acid]",IC50,[8],0.33 ± 0.06 nM
"C[C@H](N)C(=O)N1CC=C(c2cccc3c2CCN(C(=O)[C@H]2CC(c4cccc(Cl)c4F)=NO2)[C@@H]3C(=O)Nc2ccc(C(=O)O)cc2)CC1 [Example 4, 4-((S)-5-(1-((S)-2-aminopropanoyl)-1,2,3,6-tetrahydropyridin-4-yl)-2-((R)-3-(3-chloro-2-fluorophenyl)-4,5-dihydroisoxazole-5-carbonyl)-1,2,3,4-tetrahydroisoquinoline-1-carboxamido)benzoic acid]",IC50,[8],0.85 ± 0.03 nM
